For 82 molecules, EC50 results are on record in PubChem BioAssay AID489032 (Sanford-Burnham Center for Chemical Genomics, 2010).

Structures are written as SMILES. Calls of active or inactive are those of the source. No rule for the calls is given here.

The test system of this test is UPR adaptive arm reporter cells, luciferase luminescence. Put plainly: activators of adaptive UPR signalling, dose response, cell-based, luciferase luminescence (AID 489032).
Turning to `CC(=O)c1cccc(Nc2nc(-c3cccc([N+](=O)[O-])c3)cs2)c1`, the EC50 is > 80 µM (inactive).

On to `COc1cc(NC(=O)c2ccc(C)cc2C)ccc1NC(=O)c1cc2ccccc2o1`, for which the EC50 is > 80 µM (inactive).

As to `CC1CCCN(c2ccc(C(=O)NCc3cccs3)cn2)C1` (configuration not stated), the EC50 was > 80 µM (inactive).

Regarding `CC1=C(CC/C(C)=N/NC(N)=S)C(C)(C)CCC1`, the EC50 is 29.3 µM (inactive).

As for `O=C(N/N=C/C(Br)=C\c1ccccc1)c1n[nH]c2c1CCC2`, the EC50 is > 80 µM (inactive).

Regarding `Cc1ccc2nc(/C(C#N)=C/c3ccc(O)c(O)c3)[nH]c2c1`, the EC50 was > 80 µM (inactive).

For `CC(C)(C)C(=O)NC(=S)NNC(=O)c1sc2ccccc2c1Cl`, the EC50 was > 80 µM (inactive).

In the case of `Cc1ccc(-n2nc3c(N4CCC(C(=O)NCCc5ccccc5C)CC4)nnc(C)c3c2C)cc1`, the EC50 was > 80 µM (inactive).

As for `Cc1cccnc1Nc1nc(-c2ccc(O)c(O)c2)cs1`, the EC50 is > 80 µM (inactive).

Turning to `O=c1cc(CN2CCN(c3ccccc3)CC2)c2cc(O)c(-c3ccccc3)cc2o1`, the EC50 is 27.4 µM (inactive).

In the case of `COc1cc(CNCCO)cc(Cl)c1OCc1ccc(Cl)cc1Cl`, the EC50 is > 80 µM (inactive).

With `O=C(/C=C/c1ccc(Cl)cc1)NC(=S)Nc1ccc(N2CCOCC2)c(Cl)c1`, the EC50 is > 80 µM (inactive).

As to `Cc1cc(C)c2c(c1)/C(=N/Nc1ccc(S(N)(=O)=O)cc1[N+](=O)[O-])CCC2`, the EC50 was > 80 µM (inactive).

Regarding `Cc1ccc(NC(=O)c2nc[nH]c2C(=O)NCCCNC(=O)c2[nH]cnc2C(=O)Nc2ccc(C)cc2)cc1`, the EC50 is > 80 µM (inactive).

On to `COc1ccc([N+](=O)[O-])cc1COc1ccc2c(-c3ccccc3)cc(=O)oc2c1`, for which the EC50 is > 80 µM (inactive).

On to `COc1ccc(C(=O)/C=C/c2ccc(O)cc2)c(O)c1C/C=C(\C)CCC=C(C)C`, for which the EC50 was > 80 µM (inactive).

For the molecule `COc1ccc(-c2cc(-c3ccccc3)c(C#N)c(S(C)(=O)=O)n2)cc1`, the EC50 was 4.88 µM.

Turning to `O=[N+]([O-])c1cccc(/C=C/c2ccc3cccc(O)c3n2)c1`, the EC50 is 28.7 µM (inactive).

For `COc1ccc(CNC(=O)/C(C#N)=C/c2cccc(OC)c2OC)cc1`, the EC50 is 73 µM (inactive).

`O=C(Nc1ccc(NC(=O)c2sc3ccccc3c2Cl)cc1Cl)c1ccco1`: the EC50 is 22 µM (inactive).

With `O=C(Nc1ccc([N+](=O)[O-])cc1)c1nc[nH]c1C(=O)NC1CCCCC1`, the EC50 is > 80 µM (inactive).

In the case of `COc1ccc(Cn2c(SCc3ccccc3C)nc3cc(OC)c(OC)cc3c2=N)cc1`, the EC50 is 15.5 µM.

In the case of `CCCC[C@@H](C)C[C@@H](C)C(=O)N(C)[C@@H](CC(C)C)C(=O)N[C@H](C(=O)N(C)[C@H](C(=O)N1C[C@@H](O)C[C@H]1C(=O)N1C(=O)C=C[C@@H]1C)C(C)C)C(C)OC(C)=O` (some centres not stated), the EC50 is 13.4 µM.

As for `Cc1ccc(-n2nc3cc(C)c(NC(=S)NC(=O)/C=C/c4ccco4)cc3n2)cc1`, the EC50 is 35.9 µM (inactive).

Turning to `NCCOc1ccc(C23CC4CC(CC(C4)C2)C3)cc1`, the EC50 was > 80 µM (inactive).

As to `CCCNC(=O)c1c(N)n(-c2ccc3c(c2)OCO3)c2nc3ccccc3nc12`, the EC50 is > 80 µM (inactive).

As for `O=C(Nc1cccc(-c2nc3cccnc3s2)c1)C1c2ccccc2Oc2ccccc21`, the EC50 was 4.67 µM.

On to `O=C(CSCc1ccc(Cl)cc1)Nc1ccc(-c2nnc(-c3ccccc3)o2)cc1`, for which the EC50 was > 80 µM (inactive).

As for `N/C(=N\c1nc(CSc2ccccn2)cc(=O)[nH]1)Nc1ccc(Cl)cc1Cl`, the EC50 is > 80 µM (inactive).

With `Cc1nc(NC(=O)c2cc3c(C)nn(-c4ccccc4)c3s2)sc1C(=O)Nc1ccccc1`, the EC50 was 41.3 µM (inactive).

Take `CCOC(=O)c1nnc(-c2ccccc2)nc1Sc1ccccc1Cl`: the EC50 is > 80 µM (inactive).

As for `O=c1[nH]c(-c2ccc(-c3cccc(Cl)c3)o2)nc2ccccc12`, the EC50 is 13.7 µM.

Turning to `OC(CNCC1CCCO1)Cn1c2ccc(Cl)cc2c2cc(Cl)ccc21` (configuration not stated), the EC50 is > 80 µM (inactive).

Turning to `Cc1nn(Cc2c(Cl)cccc2Cl)c(C)c1NC(=O)c1cn(-c2ccccc2)nc1-c1ccccc1`, the EC50 was > 80 µM (inactive).

Take `CN(C)CCCn1cnc2c(c1=N)C(c1ccccc1)c1ccc3ccccc3c1O2` (configuration not stated): the EC50 is > 80 µM (inactive).

Take `COC(=O)c1c(NC(=O)CC2Nc3ccccc3NC2=O)sc(C)c1C` (configuration not stated): the EC50 was > 80 µM (inactive).

Regarding `Cc1ccc(C(=O)C(C(=O)/C=C/c2ccccc2)=C2SCCCS2)cc1`, the EC50 was > 80 µM (inactive).

Take `Cn1cc(/C=C(\C#N)C(=O)Nc2cccc([N+](=O)[O-])c2)c2ccccc21`: the EC50 was > 80 µM (inactive).

As for `COc1ccc2cc1Oc1ccc(cc1)CC1c3c(cc(OC)c4c3Oc3cc5c(cc3O4)CCNC5C2)CCN1C` (configuration not stated), the EC50 was > 80 µM (inactive).

On to `Cc1cc(NC(=O)c2cc(-c3ccncc3)nc3c(C)cccc23)no1`, for which the EC50 was 17.7 µM.

On to `Brc1ccc(C2=Nn3c(nnc3-c3n[nH]c4c3CCC4)SC2)cc1`, for which the EC50 was 28.3 µM (inactive).

As for `Cn1c2ccccc2c2cc(/C=N/NC(=O)c3cc(O)ccc3O)ccc21`, the EC50 was 38.1 µM (inactive).

On to `COc1ccc(-n2c(C)cc(C(=O)CCl)c2C)cc1`, for which the EC50 is > 80 µM (inactive).

Regarding `COc1c(Cl)cc(Cl)cc1/C=N/NC(=O)c1nnn(-c2nonc2N)c1CN1CCC(C)CC1`, the EC50 is 50 µM (inactive).

For the molecule `CCOC(=O)c1nnn2c1nc(Nc1cccc(C(F)(F)F)c1)c1ccccc12`, the EC50 was 17.2 µM.

Turning to `COc1ccc(/C=C/c2nc3cc(-c4ccccc4)ccc3o2)cc1O`, the EC50 was > 80 µM (inactive).

Regarding `CCCCCCCCCCOC(=O)Cn1c(COc2ccc(Cl)cc2)[n+](C)c2ccccc21`, the EC50 was > 80 µM (inactive).

For the molecule `COc1ccc(C(=O)O/N=C/c2c(C(F)(F)F)nn(C)c2SCc2ccccc2Cl)cc1`, the EC50 was > 80 µM (inactive).

On to `Cc1cc(-n2c(SCC(=O)Nc3ccc(F)c(F)c3)nc3n[nH]c(C)c3c2=N)ccc1Cl`, for which the EC50 was > 80 µM (inactive).

As for `N#Cc1c(-c2ccc3c(c2)OCO3)ccn2nc(-c3cccc(C(F)(F)F)c3)nc12`, the EC50 was > 80 µM (inactive).

On to `COc1ccc(-c2sc3ccccc3c2-c2ccc(OCCN(C)C)cc2)cc1`, for which the EC50 is > 80 µM (inactive).

With `Cc1ccc2c(=O)[nH]c(Nc3nc(C)cc(-c4ccccc4)n3)nc2c1`, the EC50 was > 80 µM (inactive).

As for `CCCCNc1c(-c2ccc(SC(C)CC)cc2)nc2cnccn12` (configuration not stated), the EC50 was > 80 µM (inactive).

Regarding `CCn1c(/C=C/c2c(C)[nH]c3ccccc23)nc2ccccc2c1=O`, the EC50 is > 80 µM (inactive).

As to `CC(C)CC(NC(=O)c1ccc(Cl)cc1)C(=O)OCC(=O)c1ccc2c(c1)NC(=O)CO2` (configuration not stated), the EC50 was > 80 µM (inactive).

In the case of `Clc1ccc2c(c1)C(N1CCNCC1)Cc1ccccc1S2` (configuration not stated), the EC50 was > 80 µM (inactive).

For `CCc1ccc(-c2nc(CN3CCC(C(=O)NCCN(CC)c4ccccc4)CC3)c(C)o2)cc1`, the EC50 was > 80 µM (inactive).

In the case of `COc1cccc2sc(N3CCN(c4nc5ccccc5s4)CC3)nc12`, the EC50 was > 80 µM (inactive).

As for `CCOC(=O)Cc1csc(/N=C/c2c(O)n(-c3ccc(C)c(C)c3)c(=O)c3ccccc23)n1`, the EC50 is > 80 µM (inactive).

Turning to `COc1ccc(-c2csc(NC(=S)NC(=O)/C=C/c3ccccc3)n2)cc1Br`, the EC50 was 13.2 µM.

For the molecule `Nc1cccc(-c2nc3cc(S(=O)(=O)c4ccc5oc(-c6cccc(N)c6)nc5c4)ccc3o2)c1`, the EC50 is 24.1 µM (inactive).

For `O=C(Cn1c2ccc(F)cc2c2nc3n(c(=O)c21)CCS3)Nc1ccc(Cl)cc1F`, the EC50 is > 80 µM (inactive).

For `CCc1cccc(CC)c1NC(=O)/C(C#N)=C/c1ccccc1C(F)(F)F`, the EC50 was > 80 µM (inactive).

`COc1ccc(-c2c/c(=N\c3nc(-c4ccccc4)c(C)s3)c3ccccc3o2)cc1O`: the EC50 was > 80 µM (inactive).

With `COc1ccc(NC(=O)c2cc3c(=O)n(C)c4ccccc4c3n2C)cc1Cl`, the EC50 is > 80 µM (inactive).

Consider `Cc1ccc(Nc2nc(-c3c(C)nc4ccccn34)cs2)cc1`, for which the EC50 was > 80 µM (inactive).

With `Cc1ccc(-c2[nH]ncc2/C=N/n2c(COc3ccccc3)nc3ccccc3c2=O)cc1`, the EC50 was > 80 µM (inactive).

Turning to `COc1ccccc1C(=O)NC(=S)NNC(=O)c1sc2ccccc2c1Cl`, the EC50 is > 80 µM (inactive).

For `CCOC(=O)N1CCN(S(=O)(=O)c2ccc(C(=O)Nc3nc4c(s3)CC(C)CC4)cc2)CC1` (configuration not stated), the EC50 is > 80 µM (inactive).

Take `O=C(Cn1c2ccccc2c(=O)c2cc([N+](=O)[O-])ccc21)Nc1ccccc1Cl`: the EC50 was > 80 µM (inactive).

With `CCCCCCCCCCn1c2c(c(=N)c3c1CCC3)CCC2`, the EC50 was 24.9 µM (inactive).

For `CN1/C(=C\C(=O)COC(=O)c2ccc(O)c(O)c2)C(C)(C)c2ccccc21`, the EC50 was > 80 µM (inactive).

For `Cc1ccc(N=Cc2c(O)n(-c3ccc4c(c3)OCO4)c(=O)c3ccccc23)cc1`, the EC50 was > 80 µM (inactive).

With `CCOC(=O)c1nnc(-c2ccc(C)cc2)nc1Oc1ccc(Cl)cc1Cl`, the EC50 is 40 µM (inactive).

Regarding `CN(C)CC(CCC(CN(C)C)C(O)(c1ccccc1)c1ccccc1)C(O)(c1ccccc1)c1ccccc1` (configuration not stated), the EC50 was > 80 µM (inactive).

Consider `CCOC(=O)c1nnc(-c2ccc(C)cc2)nc1Oc1ccccc1Cl`, for which the EC50 is > 80 µM (inactive).

As to `Cc1ccc(-c2nnc(-c3ccc(NC(=O)Cc4cccs4)cc3)o2)cc1`, the EC50 was > 80 µM (inactive).

Consider `N#C/C(=C/c1ccc(N2CCCC2)c([N+](=O)[O-])c1)c1nc2ccccc2[nH]1`, for which the EC50 was > 80 µM (inactive).

Take `C=CCn1c(O)c(C2=c3ccccc3=NC2=O)sc1=Nc1ccc(O)cc1`: the EC50 was 38.7 µM (inactive).

For `FC(F)(F)c1nnc2c(Sc3ccc(Cl)cc3)nc3ccccc3n12`, the EC50 is > 80 µM (inactive).

For `CCc1nn(-c2cc(Oc3cccc4ccccc34)nc(-c3ccccc3)n2)c(N)c1C#N`, the EC50 is 49.2 µM (inactive).

For `Cn1nc(C(F)(F)F)c(/C=N/OC(=O)c2ccccc2)c1SCc1ccccc1Cl`, the EC50 is 10.3 µM.
